Measurements taken from patent US20130289023A1, “METHOD FOR TREATING BRAIN TUMOR” (priority 2012, published 2013).
Like-named read-outs stand apart in the source and are kept apart here.

Columns and labels:
GBM8401 cells [1] = assay: MTT cell viability assay in GBM8401; conditions: for cell death: GBM8401, 1 to 10 μM, 72 hr, FIG. 1(B)
Description: To examine the cytotoxicity of anti-psychotic drugs on malignant glioma, GBM8401 cells were treated with 21 anti-psychotic drugs at 10 μM, respectively, for 72 hr.

GBM cells = assay: Autophagy and ER stress markers in GBM cells (western blot); assay type: cell-based; conditions: for autophagy in GBM cells: GBM8401 and U87MG cells, western blot markers
Description: (§1) The cells were lysed in a lysis buffer (50 mM Tris-HCl, pH 7.4, 5 mM MgCl2, 1% Nonidet P-40, 150 mMNaCl, 1 mM phenylmethylsulfonyl fluoride). Total protein was isolated and subjected to SDS polyacrylamide gel electrophoresis and electrotransfered onto PVDF membranes (Millipore). Primary antibodies, including p-mTOR (Ser 2448), mTOR, PI3K (P110α), p-Akt (Ser 473), Akt, p-S6K (Ser 424), S6K, p-AMPK (Thrl72), AMPK, and CASP3, were obtained from Cell Signaling and LC3 was from Abgent, and secondary antibodies for anti-mouse and anti-rabbit horseradish preoxidase (HRP)-conjugation were from Chemicon International. The protein detection was performed with enhanced chemiluminescence (ECL™) method captured by a Luminescence Imaging System (LAS-4000™, Fuji Photo Film Co., Ltd),
(§2) We observed several protein expression changes, primarily involved in autophagic and cell growth related pathway, it was shown that GBM cells are more sensitive to agents that induce autophagy than apoptosis. Thus, we examined the PI3K-Akt-mTORcascade with known roles m regulation of autophagy.

U87MG cells [2] = assay: Cell viability / cell death in U87MG; assay type: cell-based; conditions: 1 to 10 μM, 72 hr, FIG. 1(B)
[3] = system: U87MG sphere cells (cancer stem-like cells)
U87MG cells [4] = assay: Side population assay (flow cytometry) in U87MG; assay type: cell-based; conditions: 10 μM, decreased from 1.43%
Description: (§3) The cells were detached from the dishes with trypsin-EDTA (Invitrogen), and suspended in a single-cell suspension at 1×10^6 cells/mL in Hank's balanced salt solution (HBSS) supplemented with 3% fetal calf serum and 10 mM Hepes. The cells were then incubated at 37° C. for 90 min with 20 μg/mL Hoechst 33342 (Sigma Chemical, St. Louis, Mo.), either alone or in the presence of 50 μmol/L verapamil (Sigma), an inhibitor of the verapamil-sensitive ABC transporter. After incubation, the cells were centrifuged immediately for 5 min at 300 g and 4° C. and resuspended in ice-cold HBSS, The cells were kept on ice to inhibit efflux of the Hoechst dye, and 1 μg/mL propidium Iodide (BD) was added to discriminate dead cells. Finally, these cells were filtered through a 40 μm cell strainer (BD) to obtain a single-cell suspension. Dual-wavelength analysis and purification were performed on a dual-laser PACS. Vantage SE machine (BD). Hoechst 33342 was excited with a 355 nm UV light and emitted blue fluorescence with a 450/20 band-pass (BP) filter and red fluorescence with a 675 nm edge filter long-pass (EFLP). A 610 nm dichroic mirror short-pass (DMSP) was used to separate the emission wavelengths. Pi-positive (dead) cells were excluded from the analysis.

GBM8401 cells [5] = assay: Side population assay (flow cytometry) in GBM8401; assay type: cell-based; conditions: 10 μM, decreased from 1.26%
Description: as §3

GBM8401 cells [6] = assay: Western blot analysis in GBM8401; assay type: cell-based; conditions: 24 hr
Description: as §1, §2
(§4) Pathway analysis of differentially expressed gene signatures obtained from microarray profiling was investigated via Consensus PathDB. Several thioridazine-mediated pathways were highlighted, including pathway in cancer, GPCR signaling, senescence and autophagy, DMA damage response, and G1 to S cell cycle control (FIGS. 4(A) and 4(B)). Because G-protein couple receptors (GPCR) are membrane associated proteins and have been widely recognized as drug targets. Therefore, we tested whether GPCR might be the target of thioridazine.

U87MG cells [7] = assay: Western blot analysis in U87MG; assay type: cell-based; conditions: 24 hr
Description: as §1, §2, §4

primary GBM spheroids = assay: Tumor spheroid assay; assay type: cell-based
Description: For the formation of tumor spheroids, cells were cultured in HEScGRO serum-free medium (human) (Chemicon) supplemented with 20 ng/mL Hegf, 10 ng/mL hFGF-b and NeuroCult MS-A proliferation supplements. Cells were seeded at low densities (1000 cells/mL) in 12-well low adhesion plates at 1 mL, per well Spheroids (tight, spherical, non-adherent masses >90 um in diameter) were counted, and at least 50 spheroids per group were measured with an ocular micrometer. For secondary spheroid-forming assays, primary spheroids were dissociated mechanically and processed as in the primary assay. For the quantification of the percentage of spheroid-forming cells, cells were seeded at one cell per well in 96-well plates, […]

U87MG cells [8] = assay: U87MG subcutaneous tumor in NOD/SCID mice; assay type: in vivo; conditions: 5 days/week
Description: Female NOD/SCID, 4-6 weeks of age were purchased from the National Laboratory Animal Center (NLAC) (Taipei, Taiwan). All protocols were approved by the institutional animal care committee of Taipei Medical University Hospital Mice were inoculated with U87MG cells in the right flank of NOD/SCID mice (1×10^6 cells/100 μL PBS, subcutaneous infection) and divided into control (sham) and thioridazine-treatment groups (5 mg/kg/day, 5 days/week). N=5 in each group. Tumor burden was measured on a weekly basis using a caliper and calculated using the following formula (a×b^2)/2, where a and b represents the long and short axis of the tumor respectively.
By the end of 6 weeks, animals were humanely sacrificed and tumor biopsies were collected.

[9] = U87MG sphere cells, 10 and 20 μM, 24 hr

fluphenazine
cell death (GBM8401 cells [1]): dose-dependent increase in cell death
autophagy in GBM cells (GBM cells): induce autophagye
cell death (U87MG cells [2]): dose-dependent increase in cell death

prochlorperazine
cell viability ([3]; U87MG sphere cells, 10 and 15 μM, 24 hr): significantly reduced

thioridazine
cell viability ([3]; 10 µM): 22%
cell viability [3, 9]: significantly reduced
cancer stem-like cells population (side population) (U87MG cells [4]): 0.1%
cancer stem-like cells population (side population) (GBM8401 cells [5]): 0.03%
IC50 (GBM8401 cells [1]): < 10 µM
cell death (GBM8401 cells [1]): dose-dependent increase in cell death
EDNRA, GPR17, GPRC5B (GPCR) expression (GBM8401 cells [6]; GBM8401, 10 μM): down-regulated
LC3-II and phospho-AMPK (THr172) (GBM8401 cells [6]; GBM8401, 5 to 15 μM): up-regulated
PI3K, phospho-Akt(Ser 473), phospho-mTOR(Ser 2448), phospho-S6K (Ser 424) (GBM8401 cells [6]; GBM8401, 5 to 15 μM): down-regulated
EDNRA, GPR17, GPRC5B (GPCR) expression (U87MG cells [7]; 10 μM): down-regulated
LC3-II and phospho-AMPK (THr172) (U87MG cells [7]; 5 to 15 μM): up-regulated
PI3K, phospho-Akt(Ser 473), phospho-mTOR(Ser 2448), phospho-S6K (Ser 424) (U87MG cells [7]; 5 to 15 μM): down-regulated
autophagy in GBM cells (GBM cells): induce autophagye
ER stress: IRE1a and ER stress-associated proteins (Bip and CHOP) (GBM cells; GBM cells): accumulation
formation of primary GBM spheroids (primary GBM spheroids): inhibited
cell death (U87MG cells [2]): dose-dependent increase in cell death
tumor samples (biopsies) compared to control mice (U87MG cells [8]; 5 mg/kg/day, end of 6 weeks): significantly smaller in size and less vascularized
tumor burden compared to vehicle control (U87MG cells [8]; i.p. injection 5 mg/kg/day, NOD-SCID mice with U87MG cells): significantly smaller

trifluoperazine
cell viability [3, 9]: significantly reduced
